Measured values reported in the supplement of paper PMC4954754.
± gives the uncertainty stated by the source.

Assays:
Conditions in all cases: 18 h
HEK293T-Rex XBP1-RLuc [1] = assay: EC50 for XBP1-RLuc reporter activation
Method: (§1)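 Dose-response of hit compounds in HEK293T-Rex cells stably expressing ERSE-FLuc or XBP1-RLuc reporters, 18 hr treatment, 1536-well; luminescence normalised to 500 nM thapsigargin (100%) and DMSO (0%), fitted to give EC50 (M) and maximal activation; '>' marks EC50 above the top tested dose (~17 µM).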

HEK293T-Rex ERSE-FLuc [2] = assay: EC50 for ERSE-FLuc reporter activation
Method: as §1

HEK293T-Rex ERSE-FLuc [3] = assay: maximal ERSE-FLuc activation from dose-response fit, relative to thapsigargin (% of thapsigargin); higher = stronger activation
Method: as §1

HEK293T-Rex XBP1-RLuc [4] = assay: maximal XBP1-RLuc activation from dose-response fit, relative to thapsigargin (% of thapsigargin); higher = stronger activation
Method: as §1

SMILES | EC50 for XBP1-RLuc reporter activation (HEK293T-Rex XBP1-RLuc [1]) [µM] | EC50 for ERSE-FLuc reporter activation (HEK293T-Rex ERSE-FLuc [2]) [µM] | maximal ERSE-FLuc activation (HEK293T-Rex ERSE-FLuc [3]) | maximal XBP1-RLuc activation (HEK293T-Rex XBP1-RLuc [4])
CC(=O)Oc1cc(N2CCOCC2)c(OC(C)=O)c2c1C(=O)c1ccccc1C2=O | > 16.9 | > 16.9 | 9.5 ± 2.7 | 3.44 ± 3.3
COc1c(O)cc2oc(-c3ccc(O)c(O)c3)cc(=O)c2c1O | 8.02 | 3.69 | 129 ± 3.5 | 57.9 ± 2.8
CNc1ccc2oc(C[C@H]3O[C@@]4(CC[C@H]3C)O[C@H]([C@H](C)C(=O)c3ccc[nH]3)[C@H](C)C[C@H]4C)nc2c1C(=O)O | 4.49 | 2.39 | 56.9 ± 16 | 91.4 ± 5.9
CC(Oc1ccc(Cl)cc1Cl)C(=O)NNC(=O)c1ccc(O)c(O)c1 (configuration not stated) | > 14.9 | > 14.9 | 50 ± 8.3 | 45.2 ± 5.7
CCCCNC(=O)c1cc(-c2cccs2)on1 | > 16.9 | 6.65 | 107 ± 7.8 | 10.3 ± 2.2
NN1C(=O)/C(=C/c2ccc(O)c(O)c2)SC1=S | > 16.9 | 11.7 | 53.7 ± 2.2 | 33.2 ± 4.3
CN(C)c1ccc(/C=N/NC(=O)c2cccc(Br)c2)cc1 | > 16.9 | > 16.9 | 19.2 ± 4.8 | 2.34 ± 2
O=C(Nc1ccc(O)cc1)c1c(O)c2c([nH]c1=O)CCCC2 | > 16.1 | > 16.1 | 22.3 ± 2.9 | 28.5 ± 3.6
Cc1ccc(NC(=S)NC(=O)C(=O)Nc2ccccc2)cc1 | > 16.9 | > 16.9 | 6.38 ± 2.8 | 2.05 ± 0.91
NC(=O)c1c(NC(=O)/C=C/c2ccccc2)sc2c1CCCCC2 | > 16.9 | > 16.9 | 22.6 ± 3.1 | 3.01 ± 2.8
COCCNC(=O)c1cc(-c2cccs2)on1 | > 16.9 | 15.5 | 54.1 ± 14 | 9.6 ± 3.2
Nc1ccc2nc(/C=C/c3ccccc3)[nH]c2c1 | > 15.3 | > 15.3 | 34.4 ± 4.7 | 23.8 ± 1.7
CCCCCC(=O)Nc1ccc(C(=O)Nc2ccccc2O)cc1 | > 15.6 | 8.09 | 112 ± 10 | 21.2 ± 1.6
CCOc1cc(C2C(C(=O)OC3CCCCC3)=C(C)NC3=C2C(=O)CC(c2ccc(OC)cc2)C3)cc(Br)c1O (configuration not stated) | 5.3 | 3.95 | 70.43 ± 0.082 | 88.6 ± 10
CCC(=O)N(Cc1cc2cc(C)ccc2n2nnnc12)C1CCCC1 | > 16.9 | > 16.9 | 20.1 ± 5.6 | 1.64 ± 4.2
Cc1ccc(O)c(NC(=O)c2cc(-c3ccco3)on2)c1 | > 16.9 | 4.85 | 167.3 ± 1.6 | 34.4 ± 4.2
COC(=O)c1ccc(C(=O)Nc2ccccc2N)cc1 | > 17.8 | 9.08 | 91.1 ± 14 | 28 ± 2.5
COc1cccc(Nc2nc(-c3ccc(OC)c(F)c3)cs2)c1 | > 16.9 | > 16.9 | 19.7 ± 3.5 | 3.68 ± 1.6
O=C(COC(=O)c1cc(O)c(O)c(O)c1)Nc1ccc(Br)cc1F | > 16.9 | > 16.9 | 41.7 ± 3.5 | 26.4 ± 2.7
O=C1/C(=C/c2ccc(O)c(O)c2)SC(=S)N1c1ccc(O)cc1 | > 16.9 | 12.4 | 77.1 ± 17 | 35.5 ± 3.5
O=C1NC(=Nc2ccccc2)S/C1=C/c1ccc(O)c(O)c1 | > 15.4 | 6.2 | 83.8 ± 12 | 38.5 ± 6.1
O=C(CCc1ccccc1)Nc1ccc(Cl)cn1 | > 17.7 | > 17.7 | 26.1 ± 2.5 | 5.24 ± 0.68

SMILES | EC50 for XBP1-RLuc reporter activation (HEK293T-Rex XBP1-RLuc [1]) [µM] | EC50 for ERSE-FLuc reporter activation (HEK293T-Rex ERSE-FLuc [2]) [µM] | maximal ERSE-FLuc activation (HEK293T-Rex ERSE-FLuc [3]) | maximal XBP1-RLuc activation (HEK293T-Rex XBP1-RLuc [4])
Cc1ccn2cc(-c3ccc(O)c(O)c3)nc2c1 | 11.9 | > 20.3 | 25.3 ± 5.2 | 70.3 ± 12
O=[N+]([O-])c1ccccc1NC(=S)N/N=C/c1ccc(O)c(O)c1 | > 18.3 | > 18.3 | 21.3 ± 3.4 | 28.2 ± 2.5
Nc1ccccc1NC(=O)c1ccc(C(F)(F)F)cc1 | > 19.9 | 9.12 | 73.1 ± 8.1 | 37.7 ± 3.5
COc1ccc(/C=C(\C#N)c2nc(-c3ccco3)cs2)cc1O | > 16.7 | > 16.7 | 32.9 ± 2.9 | 14.5 ± 4.2
CN(C)c1ccc(C(=NO)c2ccc(N(C)C)cc2)cc1 | > 17.1 | > 17.1 | 21.7 ± 4.1 | 7.51 ± 2.8
Nc1c(C(=O)Nc2ccccc2)sc2nc3c(cc12)CCCCC3 | > 16.5 | > 16.5 | 29.8 ± 4.8 | 15.7 ± 1.2
C(=C\c1ccccc1)/C=N/Nc1nc2ccccc2[nH]1 | > 18 | > 18 | 25.5 ± 3.7 | 22.2 ± 2
CN(C)/C=N/C1=C(C#N)C(c2ccc3c(c2)OCO3)c2ccc3ccccc3c2O1 (configuration not stated) | > 16.6 | > 16.6 | 21.8 ± 6.6 | 7.29 ± 3.2
Cc1nc(-c2coc3c(O)c(O)ccc3c2=O)cs1 | > 16.9 | > 16.9 | 35.2 ± 6.9 | 20.6 ± 1
N#C/C(=C/c1ccc(O)c(O)c1)c1nc2ccccc2s1 | > 16.9 | > 16.9 | 38.1 ± 2.2 | 27.5 ± 2.7
COc1cccc(C2=NOC(C(=O)Nc3cc(C)ccc3O)C2)c1 (configuration not stated) | > 16.9 | 7.27 | 92.8 ± 22 | 35.1 ± 3
O=c1/c(=C/c2ccc(O)c(O)c2)sc2nc3ccccc3n12 | > 16.9 | 6.02 | 59.2 ± 3.9 | 43.9 ± 5.4
N#Cc1c(NC(=O)c2ccc3c(c2)OCO3)sc2c1CCCC2 | > 16.9 | > 16.9 | 18.3 ± 3.2 | 1.79 ± 3.7
Cc1ccc(O)c(N=CC2=C(O)c3ccccc3C2=O)c1 | > 16.9 | 3.75 | 74.8 ± 16 | 35.5 ± 4.2
CCOc1ccc(NC(=O)c2cccc(F)c2)c([N+](=O)[O-])c1 | > 14.3 | > 14.3 | 26.4 ± 1.6 | 2.67 ± 1.8
Cc1cc(C)nc(/N=C(\N)Nc2ccc(OCc3ccccc3)cc2)n1 | 0.788 | > 14.6 | 46.9 ± 15 | 94.2 ± 4.2
COc1ccc(C2=Nn3c(nnc3-c3ccc(OC)cc3)SC2)cc1 | > 16.9 | > 16.9 | 17 ± 5.2 | 16 ± 2.4
C/C(=N\NC(=O)c1n[nH]c2c1CCCC2)c1ccc(Br)cc1 | > 16.9 | > 16.9 | 32.5 ± 9.9 | 8.77 ± 2
Cc1ccc(C(=O)Nc2ccccc2N)cc1 | > 14.7 | 4.27 | 137 ± 15 | 42.2 ± 2.2
C=CCNC(=O)c1cc(-c2ccc(F)cc2)on1 | > 16.9 | 16.7 | 50.2 ± 7.4 | 6.35 ± 5.3
CCn1c(/C(C#N)=C/c2ccc(OC)cc2)nc2ccccc21 | > 19.4 | > 19.4 | 30.6 ± 6.3 | 5.17 ± 3
